Values quoted from earlier work in article PMC10049421, “Anticancer Activity of Sunitinib Analogues in Human Pancreatic Cancer Cell Cultures under Normoxia and Hypoxia” (International Journal of Molecular Sciences, 2023).

How the values were obtained:
PANC-1 cells = conditions: PANC-1, 5 μM; cited from earlier work
MIA PaCa-2 cell line [1] = test system: MIA PaCa-2 cell line; design: method as in PMID 30341797; conditions: MIA PaCa-2, 5 μM; cited from earlier work
PANC-1 cell monolayer = conditions: PANC-1, 1 μM, 24 h and 48 h; cited from earlier work
MIA PaCa-2 cell line [2] = test system: MIA PaCa-2 cell line; design: method as in PMID 26176887; conditions: MIA PaCa-2, 1 μM, 24 h and 48 h; cited from earlier work

Nc1ccn([C@@H]2O[C@H](CO)[C@@H](O)C2(F)F)c(=O)n1 [gemcitabine]
colony formation (PANC-1 cells): statistically significantly reduced | colony formation (MIA PaCa-2 cell line [1]): statistically significantly reduced | 'wounds' compared to the control (PANC-1 cell monolayer): did not show a significant difference | 'wounds' compared to the control (MIA PaCa-2 cell line [2]): did not show a significant difference
